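Five compound concentrations were applied to cells in 96-well plates for 48 hours; endpoints were derived by simple linear interpolation of the resulting dose-response curve. Here, GI50 denotes the concentration required for 50% inhibition of growth. TGI: concentration producing complete growth inhibition.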
Experiments:
Assay in all cases: DTP human tumour cell line panel, 48 h
ACHN renal = tested on: ACHN renal
HT29 colon = tested on: HT29 colon
MCF7 breast = tested on: MCF7 breast
MDA-MB-231 breast = tested on: MDA-MB-231 breast
NCI-H460 lung = tested on: NCI-H460 lung
RPMI-8226 leukemia = tested on: RPMI-8226 leukemia
SK-OV-3 ovarian = tested on: SK-OV-3 ovarian
SNB-75 CNS = tested on: SNB-75 CNS
TK-10 renal = tested on: TK-10 renal
UACC-62 melanoma = tested on: UACC-62 melanoma

Compound | GI50 (ACHN renal) [µM] | TGI (ACHN renal) [µM] | GI50 (HT29 colon) [µM] | TGI (HT29 colon) [µM] | GI50 (MCF7 breast) [µM] | TGI (MCF7 breast) [µM] | GI50 (MDA-MB-231 breast) [µM] | TGI (MDA-MB-231 breast) [µM] | GI50 (NCI-H460 lung) [µM] | TGI (NCI-H460 lung) [µM] | GI50 (RPMI-8226 leukemia) [µM] | TGI (RPMI-8226 leukemia) [µM] | GI50 (SK-OV-3 ovarian) [µM] | GI50 (SNB-75 CNS) [µM] | TGI (SNB-75 CNS) [µM] | GI50 (TK-10 renal) [µM] | TGI (TK-10 renal) [µM] | GI50 (UACC-62 melanoma) [µM] | TGI (UACC-62 melanoma) [µM] | TGI (SK-OV-3 ovarian) [µM]
COc1ccc2c(c1)OC1=C(C(=O)OC1)C2c1cc(OC)c2c(c1)OCO2 (configuration not stated) | 0.267 | > 100 | 0.0328 | > 100 | 0.0342 | > 100 | 0.0689 | > 100 | 0.0374 | > 100 | 0.0487 | > 100 | 0.0336 | 0.0297 | > 100 | 0.268 | > 100 | 0.0478 | > 100 | 
COc1ccc(OC)c(Cn2cc3c(c2)-c2oncc2CC3)c1 | 6.07 | > 100 | 2.35 | 10.9 | 3.02 | > 81.9 | 5.02 | > 72 | 3.26 | 17.7 | 3.39 | > 27.9 | 3.13 | 1.75 | 6.56 | 4.23 | > 100 | 3.97 | > 100 | > 57.5
CC(C)(C)c1ccc(C(=O)Nc2sc3c(c2C(N)=O)CCC(=O)C3)cc1 | 0.352 | 1.1 | 0.489 | 3.5 | 0.402 | 2.96 | 0.999 | 2.63 | 0.586 | 1.94 | 0.158 | 0.581 | 2.81 | 1.11 | 2.53 | 1.42 | 4.77 | 0.498 | 2.01 | 8.75
CN(CC(N)=O)C(=O)N(CCCl)N=O |  | > 100 |  | > 100 |  | > 100 |  | > 100 |  | > 100 |  | > 100 |  |  | > 100 |  | > 100 |  | > 100 | > 100
COc1ccc(C2[C@@H](Cl)C(=O)N2c2cc(OC)c(OC)c(OC)c2)cc1Cl (some centres not stated) | 0.0798 | 49.1 | 0.221 | 0.752 | 0.0367 | > 100 | 0.273 | 26.1 | 0.317 | 6.95 | 0.279 | 3.47 | 0.29 | 0.0734 | 71.2 | 0.94 | 71.7 | 0.0463 | 29 | > 100
Cc1c(C2=C(c3cn(C)c4ccccc34)C(=O)NC2=O)c2ccccc2n1C | 4.57 | > 25 | 1.12 | > 25 | 0.997 | > 25 | > 18.6 | > 25 | 1.29 | > 25 | > 13.8 | > 25 | 1.78 | 0.732 | 7.38 | 6 | > 25 | 1.95 | > 25 | > 25
COc1cc(/C=C/[N+](=O)[O-])cc(Br)c1OC | 2.5 | 6.49 | 1.81 | 3.57 | 1.93 | 7.43 | 3.03 | 8.05 | 3.48 | 11.4 | 2.59 | 6.64 | 13.4 | 1.85 | 5 | 3.52 | 11.5 | 3.49 | 12.2 | 26.5
CCN1C(=O)N(CC)C2C1NN=c1s/c(=C3\C(=O)N(CCc4ccccc4)c4ccccc43)c(=O)n12 (configuration not stated) | 0.767 |  | 0.351 | 1.58 | 0.353 | > 67.7 | 0.844 | 7.51 | 0.361 | 1.88 | 0.608 |  | 0.542 | 0.289 | 2.09 | 4.22 | 29.2 | 0.637 | 11.5 | 5.77
O=C(O)COc1c(Cl)cc(Cl)c2cccnc12 |  | > 100 |  | > 100 |  | > 100 |  | > 100 |  | > 100 |  | > 100 |  |  | > 100 |  | > 100 |  | > 100 | > 100
O=C(Nc1cccc(Nc2ncc(Br)c(NCCc3cnc[nH]3)n2)c1)N1CCCC1 | 11 | 56 | 3.85 | 24.2 | 1.19 | 17.7 | 4.07 | 29.2 | 3.68 | 15 | 3.9 | 19.5 | 4.95 | 1.28 | 4.96 | 3.87 | 20 | 6.12 | 22.4 | 32.4

Reference: PubChem BioAssay (NCI)
